Results reported in US20250109140A1, “5-[5-(PIPERIDIN-4-YL)THIENO[3,2-C]PYRAZOL-2-YL]INDAZOLE DERIVATIVES AND RELATED COMPOUNDS AS MODULATORS FOR SPLICING NUCLEIC ACIDS AND FOR THE TREATMENT OF PROLIFERATIVE DISEASES” (REMIX THERAPUTICS INC., priority 2022, published 2025).
Where a name gives a salt, the structure may show the parent alone. Read-outs that look alike come from different tables or passages of the source.

Tests used:
Assay type in all cases: cell-based
HTT mRNA = assay: Splicing RT-qPCR assay, HTT canonical (CJ) and alternative (AJ) junction mRNA; conditions: Homo sapiens; for EC50: AC50 = 50% response in AJ mRNA increase
Method: (§1) Compounds described herein were used to modulate RNA transcript abundance in cells. The expression of a target mRNA was measured by detecting the formation of an exon-exon junction in the canonical transcript (CJ). A compound mediated exon-inclusion event was detected by observing an increase in formation of a new junction with an alternative exon (AJ). Real-time qPCR assays were used to detect these splicing switches and interrogate the potency of various compounds towards different target genes. A high-throughput real time quantitative PCR (RT-qPCR) assay was developed to measure these two isoforms of the mRNA (CJ and AJ) for exemplary genes, such as HTT, SMN2, and MYB, together with a control housekeeping gene, GAPDH or GUSB or PPIA, used for normalization. Briefly, the A673 or K562 cell line was treated with various compounds described herein (e.g., compounds of Formula (I)). After treatment, the levels of the HTT, MYB, or SMN2 mRNA targets were determined from each sample of cell lysate by cDNA synthesis followed by qPCR.
(§2) The A673 cell line was cultured in DMEM with 10% FBS. Cells were diluted with full growth media and plated in a 96-well plate (15,000 cells in 100 ul media per well). The plate was incubated at 37° C. with 5% CO2 for 24 hours to allow cells to adhere. An 11-point 3-fold serial dilution of the compounds was made in DMSO then diluted in media in an intermediate plate. Compounds were transferred from the intermediate plate to the cell plate with the top dose at a final concentration of 10 uM in the well. Final DMSO concentration was kept at or below 0.25%. The cell plate was returned to the incubator at 37° C. with 5% CO2 for an additional 24 hours.
(§3) The K562 cell line was cultured in IMDM with 10% FBS. For K562, cells were diluted with full growth media and plated in either a 96-well plate (50,000 cells in 50 uL media per well) or a 384-well plate (8,000-40,000 cells in 45 uL media per well). An 11-point 3-fold serial dilution of the compounds were made in DMSO then diluted in media in an intermediate plate. Compound was transferred from the intermediate plate to the cell plate with the top dose at a final concentration of 10 uM in the well. Final DMSO concentration was kept at or below 0.25%. Final volume was 100 uL for 96-well plate and 50 uL for 384-well plate. The cell plate was then placed in an incubator at 37° C. with 5% CO2 for 24 hours.
(§4) The cells were then gently washed with 50 uL-100 uL cold PBS before proceeding to addition of lysis buffer. 30 uL-50 uL of room temperature lysis buffer with DNAse I (and optionally RNAsin) was added to each well. Cells were shaken/mixed thoroughly at room temperature for 5-10 minutes for lysis to take place and then 3 uL-5 uL of room temperature stop solution was added and wells were shaken/mixed again. After 2-5 minutes, the cell lysate plate was transferred to ice for RT-qPCR reaction setup. The lysates could also be frozen at-80° C. for later use.
(§5) In some cases, a direct lysis buffer was used. An appropriate volume of 3× lysis buffer (10 mM Tris, 150 mM NaCl, 1.5%-2.5% Igepal and 0.1-1 U/uL RNAsin, pH 7.4) was directly added to either K562 or A673 cells in media and mixed by pipetting 3 times. The plates were then incubated at room temperature with shaking/rocking for 20-50 minutes to allow for lysis to take place. After this time, the cell lysate plate was transferred to ice to set up for the RT-qPCR reactions. The lysates could also be frozen at −80° C. for later use.
(§6) To set up 10 uL RT-qPCR reactions, cell lysates were transferred to 384-well qPCR plates containing the master mix according to the table below. The plates were sealed, gently vortexed, and spun down before the run. The volumes were adjusted accordingly in some instances where the reaction was carried in 20 μL. The table below summarizes the components of the RT-qPCR reactions:
(§7) The RT-qPCR reaction was performed using a QuantStudio (ThermoFisher) under the following fast cycling conditions. […]

MYB mRNA = assay: Splicing RT-qPCR assay, MYB canonical (CJ) and alternative (AJ) junction mRNA; conditions: Homo sapiens; for EC50: AC50 = 50% response in AJ mRNA increase
Method: as §1, §2, §3, §4, §5, §6, §7

SMN2 mRNA = assay: Splicing RT-qPCR gene panel, SMN2 canonical junction (CJ) mRNA; conditions: Homo sapiens; Table 8; larger gene panel, decrease in CJ mRNA levels
Method: as §1, §2, §3, §4, §5, §6, §7

Target C mRNA = assay: Splicing RT-qPCR gene panel, Target C canonical junction (CJ) mRNA; conditions: Homo sapiens; Table 8; larger gene panel, decrease in CJ mRNA levels
Method: as §1, §2, §3, §4, §5, §6, §7

[1] = Table 7, RT-qPCR, A673 or K562 cells, 24 hours treatment
[2] = Table 7, IC50 = 50% response in CJ mRNA decrease, RT-qPCR, A673 or K562 cells, 24 hours treatment, read-out: HTT CJ
[3] = Table 8, larger gene panel, decrease in CJ mRNA levels, read-out: HTT CJ IC50
[4] = Table 7, IC50 = 50% response in CJ mRNA decrease, RT-qPCR, A673 or K562 cells, 24 hours treatment, read-out: MYB CJ
[5] = Table 8, larger gene panel, decrease in CJ mRNA levels, read-out: MYB CJ IC50

| SMILES | EC50 (HTT mRNA; [1]) | IC50 (HTT mRNA; [2]) | IC50 (HTT mRNA; [3]) | EC50 (MYB mRNA; [1]) | IC50 (MYB mRNA; [4]) | IC50 (MYB mRNA; [5]) | IC50 (SMN2 mRNA) | IC50 (Target C mRNA) |
| --- | --- | --- | --- | --- | --- | --- | --- | --- |
| C[C@@H]1C[C@@H](c2cc3sc(-c4cc(F)c5nn(C)cc5c4)nc3s2)CCN1 (single isomer, unassigned) [Compound 193, 7-fluoro-2-methyl-5-[5-(2-methylpiperidin-4-yl)thieno[2,3-d][1,3]thiazol-2-yl]indazole] | < 100 nM | < 100 nM | < 100 nM | < 100 nM | < 100 nM | < 100 nM | < 100 nM | < 100 nM |
| Cc1cn2nc(N3Cc4sc(C5CCNCC5)cc4C3=O)cc(C)c2n1 [Compound 1127] | < 100 nM | < 100 nM | < 100 nM | 100 to 1000 nM | 100 to 1000 nM | 100 to 1000 nM | < 100 nM | 100 to 1000 nM |
| Cn1cc2cc(-c3nc4sc(C5(O)CCNCC5)cc4s3)cc(F)c2n1 [Compound 236, 4-[2-(7-fluoro-2-methylindazol-5-yl)thieno[2,3-d][1,3]thiazol-5-yl]piperidin-4-ol] | 1000 to 10000 nM | 100 to 1000 nM | 1000 to 10000 nM | 1000 to 10000 nM | 100 to 1000 nM | 1000 to 10000 nM | 100 to 1000 nM | 1000 to 10000 nM |
| Cc1cn2nc(-c3cc4sc(C5CCNCC5)nc4s3)cc(C)c2n1 [Compound 125, 4-(5-[2,8-dimethylimidazo[1,2-b]pyridazin-6-yl]thieno [2,3-d][1,3]thiazol-2-yl) piperidine] | 100 to 1000 nM | 100 to 1000 nM | 100 to 1000 nM | 100 to 1000 nM | 1000 to 10000 nM | 100 to 1000 nM | 100 to 1000 nM | 1000 to 10000 nM |
| Cc1cn2nc(-c3nc4sc(C5CCOCC5)cc4s3)cc(C)c2n1 [Compound 196, 2,8-dimethyl-6-[5-(oxan-4-yl)thieno[2,3-d][1,3]thiazol-2-yl]imidazo[1,2-b]pyridazine] | 1000 to 10000 nM | 1000 to 10000 nM | 1000 to 10000 nM | 1000 to 10000 nM | 1000 to 10000 nM | 1000 to 10000 nM | 1000 to 10000 nM | 1000 to 10000 nM |
| CC1CN(c2cc3sc(-c4cc(F)c5nn(C)cc5c4)nc3s2)CCN1C (centres unmarked) [Compound 128, 5-[5-(3,4-dimethylpiperazin-1-yl)thieno[2,3-d][1,3]thiazol-2-yl]-7-fluoro-2-methylindazole] | 1000 to 10000 nM | 1000 to 10000 nM | 1000 to 10000 nM | 1000 to 10000 nM | 1000 to 10000 nM | 1000 to 10000 nM | 100 to 1000 nM | 1000 to 10000 nM |
| Cn1cc2cc(-c3nc4sc(N5CCNCC5)cc4s3)cc(F)c2n1 [Compound 134, 7-fluoro-2-methyl-5-[5-(piperazin-1-yl)thieno[2,3-d][1,3]thiazol-2-yl]indazole] | < 100 nM | 100 to 1000 nM | < 100 nM | 100 to 1000 nM | 100 to 1000 nM | 100 to 1000 nM | < 100 nM | 100 to 1000 nM |
| Cn1cc2c(O)c(-c3nc4sc(C5CCNCC5)cc4s3)ccc2n1 [Compound 231, 2-methyl-5-[5-(piperidin-4-yl)thieno[2,3-d][1,3]thiazol-2-yl]indazol-4-ol] | 1000 to 10000 nM | 1000 to 10000 nM | 1000 to 10000 nM | 1000 to 10000 nM | > 10000 nM | 1000 to 10000 nM | 100 to 1000 nM | > 10000 nM |
| Cn1cc2cc(-c3nc4sc([C@H]5CCNC[C@H]5F)cc4s3)cc(F)c2n1 [Compound 240, 7-fluoro-5-{5-[(3S,4S)-3-fluoropiperidin-4-yl]thieno[2,3-d][1,3]thiazol-2-yl}-2-methylindazole] | 1000 to 10000 nM | 1000 to 10000 nM | 1000 to 10000 nM | 1000 to 10000 nM | 1000 to 10000 nM | 1000 to 10000 nM | 100 to 1000 nM | > 10000 nM |
| CN1CCC(c2cc3sc(-c4cc(F)c5nn(C)cc5c4)nc3s2)CC1 [Compound 151, 7-fluoro-2-methyl-5-[5-(1-methylpiperidin-4-yl)thieno[2,3-d][1,3]thiazol-2-yl]indazole] | < 100 nM | < 100 nM | < 100 nM | 1000 to 10000 nM | 100 to 1000 nM | 1000 to 10000 nM | < 100 nM | 100 to 1000 nM |

Results, then the compound that gave them:

| EC50 (HTT mRNA; [1]) | IC50 (HTT mRNA; [2]) | IC50 (HTT mRNA; [3]) | EC50 (MYB mRNA; [1]) | IC50 (MYB mRNA; [4]) | IC50 (MYB mRNA; [5]) | IC50 (SMN2 mRNA) | IC50 (Target C mRNA) | SMILES |
| --- | --- | --- | --- | --- | --- | --- | --- | --- |
| 1000 to 10000 nM | 1000 to 10000 nM | 1000 to 10000 nM | 1000 to 10000 nM | 1000 to 10000 nM | 1000 to 10000 nM | 100 to 1000 nM | 1000 to 10000 nM | Cn1cc2cc(N3Cc4sc(C5CCNCC5)cc4C3=O)ncc2n1 [Compound 1125] |
| 1000 to 10000 nM | 1000 to 10000 nM | 1000 to 10000 nM | 1000 to 10000 nM | 1000 to 10000 nM | 1000 to 10000 nM | 100 to 1000 nM | 1000 to 10000 nM | Cc1cn2nc(-c3nc4sc(C5CNC5)cc4s3)cc(C)c2n1 [Compound 235, 3-(2-{2,8-dimethylimidazo[1,2-b]pyridazin-6-yl}thieno[2,3-d][1,3]thiazol-5-yl) azetidine] |
| 100 to 1000 nM | 100 to 1000 nM | 100 to 1000 nM | 100 to 1000 nM | 100 to 1000 nM | 100 to 1000 nM | < 100 nM | 100 to 1000 nM | CCNC1CCN(c2cc3sc(-c4cc(F)c5nn(C)cc5c4)nc3s2)CC1 [Compound 137, N-ethyl-1-[2-(7-fluoro-2-methylindazol-5-yl)thieno[2,3-d][1,3]thiazol-5-yl]piperidin-4-amine] |
| < 100 nM | < 100 nM | < 100 nM | 100 to 1000 nM | 100 to 1000 nM | 100 to 1000 nM | < 100 nM | 100 to 1000 nM | Cc1cn2cc(-c3nc4sc(C5CCNCC5)cc4s3)cc(C)c2n1 [Compound 140, 4-(2-[2,8-dimethylimidazo[1,2-a]pyridin-6-yl]thieno[2,3-d][1,3]thiazol-5-yl)piperidine hydrochloride] |
| 100 to 1000 nM | < 100 nM | 100 to 1000 nM | 100 to 1000 nM | 100 to 1000 nM | 100 to 1000 nM | < 100 nM | 100 to 1000 nM | Cc1cn2cc(-c3nc4sc(C5CCNCC5)cc4s3)ccc2n1 [Compound 271, 4-(2-{2-methylimidazo[1,2-a]pyridin-6-yl}thieno[2,3-d][1,3]thiazol-5-yl)piperidine] |
| 100 to 1000 nM | 100 to 1000 nM | 100 to 1000 nM | 100 to 1000 nM | 100 to 1000 nM | 100 to 1000 nM | 100 to 1000 nM | 1000 to 10000 nM | Cc1cn2nc(-c3nc4sc(C5CCNC5)cc4s3)cc(C)c2n1 (centres unmarked) [Compound 197, 3-(2-{2,8-dimethylimidazo[1,2-b]pyridazin-6-yl}thieno [2,3-d][1,3]thiazol-5-yl)pyrrolidine] |
